The source of these data is ChEMBL document CHEMBL4765462, “Synthetic Lethality through the Lens of Medicinal Chemistry” (J Med Chem, 2020).

Data set [1] deals with T1, DNA repair protein RAD52 homolog (Homo sapiens, UniProt P43351).
T1 sequence (P43351 whole entry): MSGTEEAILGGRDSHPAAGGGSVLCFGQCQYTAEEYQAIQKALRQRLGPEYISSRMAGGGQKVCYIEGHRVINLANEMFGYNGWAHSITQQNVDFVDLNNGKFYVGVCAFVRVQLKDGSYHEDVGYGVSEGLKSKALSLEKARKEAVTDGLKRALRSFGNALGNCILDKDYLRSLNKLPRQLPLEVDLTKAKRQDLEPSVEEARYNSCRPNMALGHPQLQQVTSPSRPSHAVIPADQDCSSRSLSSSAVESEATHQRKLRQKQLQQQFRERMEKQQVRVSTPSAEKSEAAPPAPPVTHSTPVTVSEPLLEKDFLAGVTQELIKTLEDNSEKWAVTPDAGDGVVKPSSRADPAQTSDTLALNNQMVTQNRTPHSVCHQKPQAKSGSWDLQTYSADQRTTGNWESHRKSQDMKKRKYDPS
Briefly: Inhibition of FAM-conjugated ssDNA binding to His-tagged wild type RAD52 (unknown origin) expressed in Rosetta2(DE3)/pLysS cells measured after 30 mins by fluorescence polarization assay. On the technique in general: Fluorescence polarisation rises when a labelled molecule tumbles more slowly, as on binding a larger partner.

For data set [2], the target named is T2, DNA repair protein RAD52 homolog (Homo sapiens) (UniProt P43351).
T2 sequence (whole entry): T1 sequence (P43351 whole entry)
Briefly: Inhibition of FAM-conjugated ssDNA binding to His-tagged wild type RAD52 (unknown origin) expressed in Rosetta2(DE3)/pLysS cells measured after 30 mins by high-throughput fluorescence polarization assay relative to control. The arrangement: concentration or dose not given beside the values.

A further data set relates to U-87 MG. As to the kind of experiment: Antimigratory activity against human U87 cells up to 10 microM incubated for 6 hrs by CellTiter-Glo luminescent cell viability assay relative to control. To be noted: dose microM <=10. In kind it is functional, U-87MG ATCC. On the technique in general: In ATP-based viability assays light output follows the ATP content of the culture.

A short description of data set [3]: Antimigratory activity against human U-1242 cells at 3 uM incubated for 1 hr by scratch assay. In kind it is functional, U-1242MG.
The nature of data set [4]: Inhibition of human placental DNA-PK/Ku using EPPLSQEAFADLWKK as substrate in presence of [32P]ATP incubated for 12 mins by scintillation counting method.
Data set [5] addresses Cyclin-dependent kinase 12 (Homo sapiens, UniProt Q9NYV4). Briefly: Inhibition of CDK12 (unknown origin).
In data set [6] the target is Cyclin-dependent kinase 13 (Homo sapiens, UniProt Q14004). Briefly: Inhibition of CDK13 (unknown origin).
For another data set, the target named is Wee1-like protein kinase (Homo sapiens, UniProt P30291). Briefly: Displacement of kinase tracer178 from recombinant WEE1 (unknown origin) incubated for 1 hr by lanthascreen TR-FRET assay. On the technique in general: Time-resolved FRET reads energy transfer from a long-lived donor to a nearby acceptor.
The target of data set [7] is Serine-protein kinase ATM (Homo sapiens, UniProt Q13315). Briefly: Inhibition of human HeLa nuclear extract derived ATM using glutathioneS-transferase-p53N66 as substrate preincubated for 10 mins followed by ATP addition and measured after 1 hr by ELISA.
Another data set concerns CAPAN-1. As to the kind of experiment: Growth inhibition of BRCA2-deficient human Capan-1 cells at 10 uM incubated for 6 days with replacement of medium for every 3 days by CCK8 assay relative to control. In kind it is functional. To be noted: CAPAN-1, 144 h, time 6 day, read-out: GI.
The test system of the next data set is BXPC-3. As to the kind of experiment: Growth inhibition of BRCA2-proficient human BxPC3 cells at 10 uM assessed as cell survival incubated for 6 days with replacement of medium for every 3 days by CCK8 assay relative to control. Format: functional. To be noted: BXPC-3, 144 h, time 6 day, read-out: Survival.
Data set [8] in a line: Inhibition of DNA-PK (unknown origin). The arrangement: species or system Homo sapiens.
Data set [9] concerns the target Serine/threonine-protein kinase ATR (Homo sapiens, UniProt Q13535). As to the kind of experiment: Inhibition of ATR (unknown origin).
In data set [10] the target is Serine/threonine-protein kinase mTOR (Homo sapiens, UniProt P42345). Briefly: Inhibition of mTOR (unknown origin).
Data set [11] addresses Voltage-gated inwardly rectifying potassium channel KCNH2 (Homo sapiens, UniProt Q12809). As to the kind of experiment: Inhibition of human ERG.
Data set [12] concerns the target Macrophage colony-stimulating factor 1 receptor (Homo sapiens) (UniProt P07333). Briefly: Inhibition of human CSF1R expressed in baculovirus expression system at 1 uM relative to control.
In data set [13] the target is Serine/threonine-protein kinase Sgk1 (Homo sapiens) (UniProt O00141). As to the kind of experiment: Inhibition of human SGK expressed in baculovirus expression system at 1 uM relative to control.
Data set [14] concerns the target NUAK family SNF1-like kinase 1 (Homo sapiens) (UniProt O60285). As to the kind of experiment: Inhibition of human NUAK1 expressed in baculovirus expression system at 1 uM relative to control.
The next data set concerns BT-20. Briefly: Potentiation of veliparib-induced cytotoxicity against human BT20 cells incubated for 7 days by celltiter-Glo assay relative to control. Format: functional. To be noted: time 7 day.
For a further data set, the system named is MDA-MB-468. Briefly: Potentiation of veliparib-induced cytotoxicity against human MDA-MB-468 cells incubated for 7 days by celltiter-Glo assay relative to control. In kind it is functional. To be noted: time 7 day.
For the next data set, the system named is MDA-MB-436. As to the kind of experiment: Potentiation of veliparib-induced cytotoxicity against human MDA-MB-436 cells incubated for 7 days by celltiter-Glo assay relative to control. Format: functional. To be noted: time 7 day.
The test system of the next data set is Hs-578T. Briefly: Potentiation of veliparib-induced cytotoxicity against human Hs578T cells incubated for 7 days by celltiter-Glo assay relative to control. Format: functional. To be noted: time 7 day.
In another data set the test system is BT-549. Briefly: Potentiation of veliparib-induced cytotoxicity against human BT549 cells incubated for 7 days by celltiter-Glo assay relative to control. Format: functional. To be noted: time 7 day.
The test system of another data set is SUM149PT. As to the kind of experiment: Potentiation of veliparib-induced cytotoxicity against human SUM149PT cells incubated for 7 days by celltiter-Glo assay relative to control. In kind it is functional. To be noted: time 7 day.
Another data set concerns MDA-MB-231. Briefly: Potentiation of veliparib-induced cytotoxicity against human MDA-MB-231 cells incubated for 7 days by celltiter-Glo assay relative to control. In kind it is functional. To be noted: time 7 day.
In the next data set the test system is HCC1937. As to the kind of experiment: Potentiation of veliparib-induced cytotoxicity against human HCC1937 cells incubated for 7 days by celltiter-Glo assay relative to control. Format: functional. To be noted: time 7 day.
Another data set relates to HCC38. Briefly: Potentiation of veliparib-induced cytotoxicity against human HCC38 cells incubated for 7 days by celltiter-Glo assay relative to control. Format: functional. To be noted: time 7 day.
In data set [15] the target is Cyclin-dependent kinase 1 (Homo sapiens, UniProt P06493). Briefly: Inhibition of CDK1 (unknown origin).
Cyclin-dependent kinase 1, sequence (P06493 whole entry): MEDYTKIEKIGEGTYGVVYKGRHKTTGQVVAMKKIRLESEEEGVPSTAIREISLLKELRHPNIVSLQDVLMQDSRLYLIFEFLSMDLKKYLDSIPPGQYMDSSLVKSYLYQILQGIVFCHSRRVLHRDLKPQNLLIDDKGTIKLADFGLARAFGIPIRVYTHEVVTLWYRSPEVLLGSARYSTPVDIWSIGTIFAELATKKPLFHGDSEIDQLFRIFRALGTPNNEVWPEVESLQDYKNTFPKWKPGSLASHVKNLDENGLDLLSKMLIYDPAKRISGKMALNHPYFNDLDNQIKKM
The target in data set [16] is T1, DNA repair protein RAD52 homolog. As to the kind of experiment: Inhibition of 6His-tagged human RD52 assessed as reduction in RD52 binding to Cy3-dT30-Cy5 ssDNA incubated for 30 mins by FRET assay.

Serine/threonine-protein kinase ATR, sequence (Q13535 whole entry): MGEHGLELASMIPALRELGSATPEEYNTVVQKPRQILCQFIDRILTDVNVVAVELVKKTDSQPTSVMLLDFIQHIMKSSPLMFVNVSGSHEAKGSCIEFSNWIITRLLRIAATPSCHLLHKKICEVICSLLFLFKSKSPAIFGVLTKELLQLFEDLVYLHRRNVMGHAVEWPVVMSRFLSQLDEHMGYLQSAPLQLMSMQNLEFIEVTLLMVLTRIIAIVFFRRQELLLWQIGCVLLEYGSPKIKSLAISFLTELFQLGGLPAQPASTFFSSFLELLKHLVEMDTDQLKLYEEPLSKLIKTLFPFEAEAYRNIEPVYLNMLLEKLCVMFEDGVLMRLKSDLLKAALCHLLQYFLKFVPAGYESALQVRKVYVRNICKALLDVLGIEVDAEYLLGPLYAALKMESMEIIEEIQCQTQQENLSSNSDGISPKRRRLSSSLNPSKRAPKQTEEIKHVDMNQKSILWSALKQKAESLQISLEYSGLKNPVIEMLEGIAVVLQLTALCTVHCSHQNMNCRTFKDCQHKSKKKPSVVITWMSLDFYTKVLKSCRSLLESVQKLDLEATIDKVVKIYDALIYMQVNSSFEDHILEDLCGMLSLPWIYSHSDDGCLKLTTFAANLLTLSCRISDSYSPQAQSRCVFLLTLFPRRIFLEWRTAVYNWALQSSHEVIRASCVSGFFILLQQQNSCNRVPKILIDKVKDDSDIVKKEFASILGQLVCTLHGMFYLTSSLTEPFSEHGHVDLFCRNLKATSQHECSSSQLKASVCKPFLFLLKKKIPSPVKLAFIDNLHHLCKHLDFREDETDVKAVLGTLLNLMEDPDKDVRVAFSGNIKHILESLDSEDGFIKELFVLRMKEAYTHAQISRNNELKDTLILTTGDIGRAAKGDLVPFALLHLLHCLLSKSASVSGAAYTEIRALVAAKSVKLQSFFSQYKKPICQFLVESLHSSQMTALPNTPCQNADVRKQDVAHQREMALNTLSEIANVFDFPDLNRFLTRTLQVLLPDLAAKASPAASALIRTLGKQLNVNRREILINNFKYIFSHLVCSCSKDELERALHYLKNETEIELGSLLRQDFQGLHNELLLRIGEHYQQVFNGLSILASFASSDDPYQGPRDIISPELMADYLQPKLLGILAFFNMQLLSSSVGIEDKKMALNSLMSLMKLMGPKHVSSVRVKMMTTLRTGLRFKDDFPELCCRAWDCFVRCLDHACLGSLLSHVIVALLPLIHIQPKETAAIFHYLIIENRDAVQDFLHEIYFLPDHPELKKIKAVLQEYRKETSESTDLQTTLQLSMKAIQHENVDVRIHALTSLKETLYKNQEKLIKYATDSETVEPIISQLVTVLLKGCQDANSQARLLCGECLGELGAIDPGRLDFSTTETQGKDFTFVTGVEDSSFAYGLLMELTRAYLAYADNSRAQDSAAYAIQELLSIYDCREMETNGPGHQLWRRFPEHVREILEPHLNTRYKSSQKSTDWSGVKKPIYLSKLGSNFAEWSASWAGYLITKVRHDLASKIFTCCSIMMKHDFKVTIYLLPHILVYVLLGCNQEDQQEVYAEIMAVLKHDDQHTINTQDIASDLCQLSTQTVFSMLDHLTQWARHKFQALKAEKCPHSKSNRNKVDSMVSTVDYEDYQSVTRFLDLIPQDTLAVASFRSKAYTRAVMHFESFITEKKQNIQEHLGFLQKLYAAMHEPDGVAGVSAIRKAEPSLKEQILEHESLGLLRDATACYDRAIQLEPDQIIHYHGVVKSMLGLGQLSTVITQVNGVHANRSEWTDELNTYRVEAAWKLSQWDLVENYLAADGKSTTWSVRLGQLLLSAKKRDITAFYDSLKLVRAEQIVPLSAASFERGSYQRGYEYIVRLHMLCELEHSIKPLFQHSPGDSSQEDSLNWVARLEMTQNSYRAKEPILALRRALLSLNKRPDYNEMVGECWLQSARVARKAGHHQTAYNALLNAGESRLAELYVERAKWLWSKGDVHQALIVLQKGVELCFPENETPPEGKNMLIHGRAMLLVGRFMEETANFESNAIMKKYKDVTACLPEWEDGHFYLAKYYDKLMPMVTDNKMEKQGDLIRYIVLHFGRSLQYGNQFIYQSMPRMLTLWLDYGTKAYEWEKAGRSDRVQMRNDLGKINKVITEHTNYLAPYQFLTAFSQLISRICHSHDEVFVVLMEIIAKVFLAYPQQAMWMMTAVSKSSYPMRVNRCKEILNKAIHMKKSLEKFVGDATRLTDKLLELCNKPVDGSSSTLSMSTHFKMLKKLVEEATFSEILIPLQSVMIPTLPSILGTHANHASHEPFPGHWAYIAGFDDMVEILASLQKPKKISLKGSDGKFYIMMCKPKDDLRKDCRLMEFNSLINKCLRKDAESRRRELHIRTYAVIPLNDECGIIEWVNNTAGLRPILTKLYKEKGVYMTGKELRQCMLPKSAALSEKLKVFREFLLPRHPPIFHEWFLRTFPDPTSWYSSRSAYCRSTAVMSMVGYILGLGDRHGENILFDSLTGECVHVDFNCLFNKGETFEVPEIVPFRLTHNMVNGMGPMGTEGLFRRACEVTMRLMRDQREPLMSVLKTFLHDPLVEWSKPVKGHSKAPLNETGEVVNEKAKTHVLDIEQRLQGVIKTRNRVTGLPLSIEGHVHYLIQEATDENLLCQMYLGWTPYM
Voltage-gated inwardly rectifying potassium channel KCNH2, sequence (Q12809 whole entry): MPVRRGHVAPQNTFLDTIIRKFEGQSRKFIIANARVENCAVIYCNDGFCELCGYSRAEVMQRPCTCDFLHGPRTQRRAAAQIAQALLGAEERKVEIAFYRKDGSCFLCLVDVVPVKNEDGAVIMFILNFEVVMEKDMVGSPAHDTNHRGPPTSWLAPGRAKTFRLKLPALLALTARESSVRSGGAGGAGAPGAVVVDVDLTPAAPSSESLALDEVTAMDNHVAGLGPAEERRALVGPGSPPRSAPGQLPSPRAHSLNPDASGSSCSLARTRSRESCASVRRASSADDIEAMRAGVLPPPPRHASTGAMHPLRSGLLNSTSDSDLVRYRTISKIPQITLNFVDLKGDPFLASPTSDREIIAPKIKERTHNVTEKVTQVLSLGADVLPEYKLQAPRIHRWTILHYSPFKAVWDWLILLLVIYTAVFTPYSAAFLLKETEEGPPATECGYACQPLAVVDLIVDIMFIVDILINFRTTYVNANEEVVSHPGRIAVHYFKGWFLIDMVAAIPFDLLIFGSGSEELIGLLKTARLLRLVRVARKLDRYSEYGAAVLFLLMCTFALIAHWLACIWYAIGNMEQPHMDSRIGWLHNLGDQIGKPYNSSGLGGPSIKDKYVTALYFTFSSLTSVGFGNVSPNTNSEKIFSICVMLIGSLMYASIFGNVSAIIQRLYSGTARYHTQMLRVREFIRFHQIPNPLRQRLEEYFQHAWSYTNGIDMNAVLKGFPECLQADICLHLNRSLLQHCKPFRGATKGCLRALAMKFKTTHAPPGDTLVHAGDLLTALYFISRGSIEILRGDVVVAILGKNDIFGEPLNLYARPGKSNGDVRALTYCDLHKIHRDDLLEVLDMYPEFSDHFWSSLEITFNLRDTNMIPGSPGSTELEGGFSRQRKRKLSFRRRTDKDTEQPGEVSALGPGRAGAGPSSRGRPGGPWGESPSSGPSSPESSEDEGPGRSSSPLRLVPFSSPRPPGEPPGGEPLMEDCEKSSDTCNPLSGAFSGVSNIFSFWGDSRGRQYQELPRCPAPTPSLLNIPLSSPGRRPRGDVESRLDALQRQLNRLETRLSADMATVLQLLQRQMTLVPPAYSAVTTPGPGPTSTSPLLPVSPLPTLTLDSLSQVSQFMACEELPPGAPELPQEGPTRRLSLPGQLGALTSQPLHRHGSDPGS
Macrophage colony-stimulating factor 1 receptor (Homo sapiens), sequence (P07333 whole entry): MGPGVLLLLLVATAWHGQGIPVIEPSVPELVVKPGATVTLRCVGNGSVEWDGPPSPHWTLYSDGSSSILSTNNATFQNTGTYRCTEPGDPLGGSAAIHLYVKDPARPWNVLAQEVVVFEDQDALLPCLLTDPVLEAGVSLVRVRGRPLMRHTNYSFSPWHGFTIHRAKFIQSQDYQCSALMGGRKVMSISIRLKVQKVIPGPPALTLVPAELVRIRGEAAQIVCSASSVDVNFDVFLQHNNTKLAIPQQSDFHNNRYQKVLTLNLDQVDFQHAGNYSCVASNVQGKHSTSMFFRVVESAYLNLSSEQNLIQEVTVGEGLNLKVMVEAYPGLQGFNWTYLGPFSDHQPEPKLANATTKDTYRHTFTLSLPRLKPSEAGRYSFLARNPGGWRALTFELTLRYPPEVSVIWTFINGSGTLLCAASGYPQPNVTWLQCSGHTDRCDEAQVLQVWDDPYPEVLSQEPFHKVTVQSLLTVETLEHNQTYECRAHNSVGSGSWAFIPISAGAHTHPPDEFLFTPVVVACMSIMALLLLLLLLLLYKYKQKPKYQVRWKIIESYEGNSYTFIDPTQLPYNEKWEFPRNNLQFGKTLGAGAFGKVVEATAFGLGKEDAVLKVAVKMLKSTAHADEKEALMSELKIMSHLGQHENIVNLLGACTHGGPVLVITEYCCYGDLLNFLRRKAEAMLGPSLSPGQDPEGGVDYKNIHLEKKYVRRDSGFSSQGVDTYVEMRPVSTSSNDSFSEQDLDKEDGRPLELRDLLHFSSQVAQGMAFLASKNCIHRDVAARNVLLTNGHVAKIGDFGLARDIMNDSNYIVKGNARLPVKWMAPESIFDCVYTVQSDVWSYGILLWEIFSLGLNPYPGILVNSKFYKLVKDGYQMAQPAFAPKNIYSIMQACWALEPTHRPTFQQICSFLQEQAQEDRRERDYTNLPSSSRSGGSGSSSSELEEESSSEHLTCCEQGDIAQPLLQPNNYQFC

What is called IC50 is the midpoint of a concentration-inhibition curve. For orientation: inhibition means the share of the control response that was lost under treatment. Turning to `NC(Cc1cc(O)c(O)cc1O)C(=O)O` (stereo not given), the concentration for half-maximal inhibition (IC50) in data set [1] was found to be 1100 nM. Besides, the inhibition in data set [2] was more than 60%.

Take `C[C@@H]1CN(CC(=O)Nc2ccc3c(c2)Cc2cccc(-c4cc(=O)cc(N5CCOCC5)o4)c2S3)C[C@H](C)O1`: the Activity is more than 70% in the data set on U-87 MG and more than 50% in data set [3].

Turning to `CCc1[nH]c(/C=C2\C(=O)Nc3ccc(S(=O)(=O)Nc4ccccc4)cc32)c(CC)c1CCC(=O)O`, the half-inhibitory concentration (IC50) in data set [4] is 130 nM.

For `CN(C)C/C=C/C(=O)Nc1ccc(C(=O)Nc2cccc(Nc3ncc(Cl)c(-c4c[nH]c5ccccc45)n3)c2)cc1`, the IC50 in data set [5] worked out at 864 nM; in data set [6], 225 nM.

`O=C1NC(=S)NC(=O)C1=C/C=C/c1ccco1` yielded a half-inhibitory concentration (IC50) in data set [1] of less than 5000 nM. The same compound yielded an inhibition in data set [2] of more than 60%.

In the case of `Cn1cccc1C=CC(=O)O`, the half-inhibitory concentration (IC50) in data set [1] was less than 5000 nM. The same compound yielded an inhibition in data set [2] of more than 60%.

With `C=CCn1c(=O)c2cnc(Nc3ccc(N4CCN(C(=O)OC)CC4)cc3)nc2n1-c1cccc(C(C)(C)O)n1`, on Wee1-like protein kinase, the concentration for half-maximal inhibition (IC50) is 2.8 nM.

As to `CC(C)Oc1c(-c2ccco2)c(=O)c1=O`, the 50% inhibitory concentration (IC50) in data set [1] was less than 5000 nM. Besides, the inhibition in data set [2] was more than 60%.

Turning to `Oc1ccc(N=Cc2ccc[nH]2)cc1N=Cc1ccc[nH]1`, the concentration for half-maximal inhibition (IC50) in data set [1] was less than 5000 nM. In data set [2], this compound gave an inhibition of more than 60%.

As to `O=C(O)c1ccc(/C=N/c2nc[nH]n2)cc1`, the half-maximal inhibitory concentration (IC50) in data set [1] is less than 5000 nM. The same compound had an inhibition in data set [2] of more than 60%.

As for `O=c1cc(-c2cccc3c2Sc2ccccc2S3)oc(N2CCCCC2)c1`, half-maximal inhibition in data set [7] (IC50) required 2960 nM.

As to `O=C1C=CC(=NOS(=O)(=O)c2cc(Cl)ccc2Cl)C=C1`, the IC50 in data set [1] is less than 5000 nM. Besides, the inhibition in data set [2] was more than 60%.

Take `Cn1cccc1C=C1C(=O)NC(=S)NC1=O`: the IC50 in [1] is less than 5000 nM. The same compound displayed an inhibition in data set [2] of more than 60%.

Turning to `Cc1ccc2[nH]c(CCc3cccc(NC(=O)C4CCCN(S(=O)(=O)N5CCCC5)C4)c3)nc2c1` (stereo not given), in the data set with CAPAN-1, the inhibition of growth at 10 µM turned out to be 50%. Besides, the viability at 10 µM in the data set on BXPC-3 was more than 90%.

In [1], `O=C(O)C1=CC(=C(c2ccc(O)c(C(=O)O)c2)c2ccc(O)c(C(=O)O)c2)C=CC1=O` [AURINTRICARBOXYLIC ACID] yielded an IC50 of less than 5000 nM. Also, in [2], the inhibition is more than 60%.

`CC(C)n1c(=O)n(C)c2cnc3cc(F)c(-c4ccc(OCCCN5CCCCC5)nc4)cc3c21` [AZD-1390]: the half-inhibitory concentration (IC50) is not below 1000 nM in data set [8], not below 1000 nM in data set [9], not below 1000 nM in [10] and 6550 nM in [11]. Besides, the inhibition in [12], in data set [13] and in data set [14] was more than 50% throughout.

In data set [8], `Cc1cc2ncnn2cc1Nc1ncc2c(n1)n(C1CCOCC1)c(=O)n2C` [AZD-7648] gave an IC50 of 0.6 nM.

Consider `CCc1cnn2c(NCc3ccc[n+]([O-])c3)cc(N3CCCC[C@H]3CCO)nc12` [DINACICLIB], for which the “fold change (FC)” value with BT-20, in the data set with MDA-MB-468, in the data set with MDA-MB-436, in the data set with Hs-578T, with BT-549 and in the data set on SUM149PT was 2.5 in each case. In addition, the “fold change (FC)” value with MDA-MB-231, in the data set with HCC1937 and with HCC38 was 2.5 each time.

Consider `Cc1cc2c(C(C)C)c(O)c(O)c(C=O)c2c(O)c1-c1c(C)cc2c(C(C)C)c(O)c(O)c(C=O)c2c1O` [GOSSYPOL], for which the IC50 in [1] is less than 5000 nM. Further, the inhibition in data set [2] was more than 60%.

One may read the Ki as a measure of affinity in units of concentration, obtained from inhibition or displacement. `Nc1nn2cc(F)cnc2c1C(=O)Nc1cncc(F)c1N1CCC(C(=O)N2CCN(C3COC3)CC2)CC1` [M4344] yielded an inhibition constant Ki in [9] not above 0.15 nM.

The compound `COc1ccc([C@@H](O)c2cc(-c3ncnc4cc(N5CCOCC5)ccc34)c(F)cc2Cl)nn1` [NEDISERTIB] gave an IC50 in data set [8] not above 3 nM.

For `CCN(CC)CCOc1ccc(Nc2ncc3cc(-c4c(Cl)cccc4Cl)c(=O)n(C)c3n2)cc1` [PD-0166285], in data set [15], the IC50 was less than 100 nM.

Take `O=C(O[C@@H]1O[C@@H]2COC(=O)c3cc(O)c(O)c(O)c3-c3c(cc(O)c(O)c3O)C(=O)O[C@H]2[C@H](O)[C@H]1O)c1cc(O)c(O)c(O)c1` [STRICTININ]: the IC50 in data set [16] is 1500 nM.
